Target: T1, rM3Ds (Rattus norvegicus, UniProt P08483, A177S/A238G/A489L/DEL261-437/DEL441-478/E258S/I253V/I483M/INS256[…]/K178L/K182A/K255R/K484R/K486H/L173F/L482A/M480V/R171S/R176Q/R179M/S481M/T174R/T181R/T257A/Y148C)
T1 sequence (P08483 with tags, fused parts or gaps Y148C/R171S/L173F/T174R/R176Q/A177S/K178L/R179M/T181R/K182A/A238G/I253V/K255R/INS256[…]/T257A/E258S/DEL261-437/DEL441-478/M480V/S481M/L482A/I483M/K484R/K486H/A489L): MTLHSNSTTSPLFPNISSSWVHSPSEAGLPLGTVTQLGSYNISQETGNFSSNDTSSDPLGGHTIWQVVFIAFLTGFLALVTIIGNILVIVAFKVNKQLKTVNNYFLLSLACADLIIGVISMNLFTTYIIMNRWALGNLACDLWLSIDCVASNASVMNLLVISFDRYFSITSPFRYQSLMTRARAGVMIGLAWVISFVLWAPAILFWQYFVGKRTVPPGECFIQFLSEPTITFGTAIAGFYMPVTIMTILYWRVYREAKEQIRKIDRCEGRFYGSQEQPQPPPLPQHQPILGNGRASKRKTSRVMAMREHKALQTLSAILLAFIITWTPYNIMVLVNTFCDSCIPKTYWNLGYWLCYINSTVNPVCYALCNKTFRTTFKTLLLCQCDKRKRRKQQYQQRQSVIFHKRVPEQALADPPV
Test: In vivo electrophysiological recording in caudate/putamen of anesthetized macaques, rM3Ds
Parameters: 2A-EYFP (C); expressed in transfected cells; host or cells: neurons (striatal D1-MSNs) of mice or cynomolgus macaques, transduced in vivo by nigral AAV8R12-G88P7-rM3Ds-2A-EYFP
Experimental: • Electrophysiological recording was performed through a recording chamber while the monkey was anesthetized. Neural responses were recorded by a 16-channel linear probe (Plexon Inc, Uprobe) driven by a mechanical microdrive (Alpha Omega, FlexMT). Signals were passed through a head stage (Plexon Inc, HST/16V-G20 LN) and then split and filtered between 300 Hz and 5 kHz to identify spiking activity with an amplifier system (Plexon Inc, OmniPlex). Detected spikes were then sorted by commercially available software (Plexon Inc, Offline Sorter) for further analysis. To quantify the effect of CNO/DCZ injection, neural activity was recorded for 60 minutes following CNO/DCZ injection. The response time-course for each channel was obtained by counting the spikes within every 10-minute window and then normalizing to the maximal.
To determine the effect of CNO/DCZ injection on the direction of signal change, we performed Pearson correlation between neural responses and time using the ‘corr’ function in Matlab, which generates the correlation coefficient ‘r’ and significant level ‘p’. A neuron was considered to have “Increased” activity when r>0 and p<0.05; and considered to have “Decreased” activity when r<0 and p<0.05. Otherwise, neurons were considered to be “Unchanged” in their neural activities. The responses of all increased neurons were then averaged after being normalized by the maximal response (Crowe et al., 2014; Dai and Wang, 2018; Hirokawa et al., 2019) following CNO/DCZ injection, and then plotted as a function of time to generate the normalized population response.
To enable in-vivo verification of the strategy via an opto-tagging approach, AAV virus encoding opsin ChR2 (AAV9-EF1α-DIO-ChR2-EYFP) was injected into the striatum with simultaneous nigral infusion of a retrograde AAV encoding Cre and rM3Ds (AAV8R12-G88P7-HA-rM3Ds-2A-Cre). A total volume of 27 μl (3 μl×9 sites) and 30 μl (3 μl×10 sites) were injected in the SNr and the striatum, respectively. A recording chamber was implanted above the striatum to allow optical stimulation and electrophysiological recording.
Optogenetic verification was conducted six weeks after virus injections. A 16-channel linear probe with an embedded optic fiber (Plexon Inc., Uprobe) was used to deliver light stimulation and record neural responses. A mechanical Microdrive (FlexMT, Alpha Omega, Nazareth, Israel) was used to mount and drive the probe. A blue laser (473 nm, Changchun New Industries Tech, MBL-III-473) was used to generate light stimulation, which was controlled by a DAQ board (National Instruments, PCIe-6321) through the MonkeyLogic toolbox (NIMH version).
Light pulses of 40 Hz that last for 500 ms were used to probe neurons' responses to optical stimulation. […] Responses from these optically identified cells were grouped to generate the normalized population response as a function of time.

[1] = monkey CM048, 38 cells, intramuscular CNO

C[N+]1([O-])CCN(C2=Nc3cc(Cl)ccc3Nc3ccccc32)CC1 [CNO, Clozapine-N-oxide]
cells in caudate/putamen activated (FIG. 12N) (38 total cells, CNO administrations, saline 20%): 50%
cells in caudate/putamen unchanged (FIG. 12N) (38 total cells, CNO administrations, saline 26.7%): 36.8%
cells in caudate/putamen inactivated (FIG. 12N) (38 total cells, CNO administrations, saline 53.3%): 13.2%
neuronal activity of opto-tagged retrogradely labeled D1-MSNs (AAV8R12-G88P7-HA-rM3Ds-2A-Cre plus AAV9-EF1α-DIO-ChR2-EYFP, intramuscular CNO, anesthetized macaques): effectively induced an increase of neuronal activity in retrogradely labeled D1-MSNs
cells in caudate/putamen activated (FIG. 15G) (MPP+ lesioned macaques, CNO 36 cells, DCZ 31 cells, saline 17.9%): 52.8%
cells in caudate/putamen inactivated (FIG. 15G) (MPP+ lesioned macaques, CNO 36 cells, DCZ 31 cells, saline 33.4%): 13.9%
cells in caudate/putamen unchanged (FIG. 15G) (MPP+ lesioned macaques, CNO 36 cells, DCZ 31 cells, saline 48.7%): 33.3%
cells in caudate activated (FIG. 12F) [1]: 65.8%
cells in caudate inactivated (FIG. 12F) [1]: 7.9%
cells in caudate unchanged (FIG. 12F) [1]: 26.3%
